Data published in US7851497B2 (priority 2004, dated 2010).
Counter-ions that a name gives are not always drawn. Like-named read-outs stand apart in the source and are kept apart here.

Experiments:
Assay type in all cases: in vivo
[1] = tested on: cucumber downy mildew; test: Test on curative effect against cucumber downy mildew
Method: Cucumber (cultivar: Suyo) was cultivated in a polyethylene pot having a diameter of 7.5 cm, and when it reached two-leaf stage, the cucumber was sprayed and inoculated with a suspension of spores of cucumber downy mildew and kept in a humidified chamber at 20° C. for 4 hours. Then, after drying the crop plant, a drug solution having the respective test compounds adjusted to the predetermined concentrations, was applied in a sufficient amount (20 ml) by means of a spray gun. After the sprayed solution dried, it was kept in a thermostatic chamber at 20° C. for 7 days, whereupon the lesion area ratio in the first leaf was investigated, and the control value was obtained by the following formula. Here, the test was carried out in double series.
The lesion area in non-treated area was obtained in the same manner as in the treated area except that instead of the drug solution, water was applied by means of a spray gun. Control value=(b−a)/b×100 where a is the lesion area ratio in treated area, and b is the lesion area ratio in non-treated area.
Further, a theoretical value can be calculated by the Colby formula. If the experimental value is higher than the theoretical value by the Colby formula, the fungicidal composition for agricultural or horticultural use of the present invention has a synergistic effect for controlling the plant disease. In this context, the theoretical values by the Colby formula are also shown in brackets ( ) in Table 2.

[2] = tested on: tomato late blight
[3] = tested on: cucumber downy mildew; test: Test on preventive effect against cucumber downy mildew
Method: Cucumber (cultivar: Suyo) was cultivated in a polyethylene pot having a diameter of 7.5 cm, and when the cucumber reached two-leaf stage, a drug solution having the respective test compounds adjusted to the predetermined concentrations, was applied in a sufficient amount (20 ml) by means of a spray gun. After the applied solution dried, the cucumber was sprayed and inoculated with a suspension of spores of cucumber downy mildew and kept in a humidified chamber at 20° C. for 4 hours. Thereafter, the cucumber was kept in a thermostatic chamber at 20° C. for 7 days, whereupon the lesion area ratio in the first leaf was investigated, and the control value was obtained by the following formula. Here, the test was carried out in double series.
The lesion area ratio in non-treated area was obtained in the same manner as in the treated area except that instead of the drug solution, water was applied by means of a spray gun. Control value=(b−a)/b×100 where a is the lesion area ratio in treated area, and b is the lesion area ratio in non-treated area.
Further, a theoretical value can be calculated by the Colby formula. If the experimental value is higher than the theoretical value by the Colby formula, the fungicidal composition for agricultural or horticultural use of the present invention has a synergistic effect for controlling the plant disease. In this context, the theoretical values by the Colby formula are also shown in brackets ( ) in Table 1.

[4] = propamocarb hydrochloride 1000 ppm alone (Compound No. 1 0 ppm)
[5] = propamocarb hydrochloride 2000 ppm alone (Compound No. 1 0 ppm)
[6] = propamocarb hydrochloride 4000 ppm alone (Compound No. 1 0 ppm)

SMILES | Control value in the test on curative effect against cucumber downy mildew ([1]; Compound No. 1 125 ppm alone (propamocarb hydrochloride 0 ppm)) | Control value in the test on curative effect against cucumber downy mildew ([1]; Compound No. 1 500 ppm alone (propamocarb hydrochloride 0 ppm)) | Control value in the test on preventive effect against tomato late blight ([2]; Compound No. 1 0.5 ppm alone (propamocarb hydrochloride 0 ppm)) | Control value in the test on preventive effect against cucumber downy mildew ([3]; Compound No. 1 0.03 ppm alone (propamocarb hydrochloride 0 ppm)) | Control value in the test on preventive effect against cucumber downy mildew ([3]; Compound No. 1 0.13 ppm alone (propamocarb hydrochloride 0 ppm)) | Control value in the test on curative effect against cucumber downy mildew [1, 4] | Control value in the test on curative effect against cucumber downy mildew [1, 5] | Control value in the test on curative effect against cucumber downy mildew [1, 6] | Control value in the test on preventive effect against tomato late blight [2, 4] | Control value in the test on preventive effect against tomato late blight [2, 5] | Control value in the test on preventive effect against tomato late blight [2, 6] | Control value in the test on preventive effect against cucumber downy mildew [3, 4] | Control value in the test on preventive effect against cucumber downy mildew [3, 5] | Control value in the test on preventive effect against cucumber downy mildew [3, 6]
Cc1ccc(-c2c(Cl)nc(C#N)n2S(=O)(=O)N(C)C)cc1 [Compound No. 1, 4-Chloro-2-cyano-1-dimethylsulfamoyl-5-(4-methylphenyl)imidazole] | 0 | 90 | 67 | 0 | 90 | – | – | – | – | – | – | – | – | –
CCCOC(=O)NCCCN(C)C [propamocarb hydrochloride] | – | – | – | – | – | 10 | 20 | 30 | 0 | 0 | 0 | 0 | 10 | 30
